The values below come from patent US8961930B2, “Isatin derivatives for use as in vivo imaging agents” (Imperial Innovations Limited, priority 2008, dated 2015).

The target of one data set is T1, caspase 3 (Homo sapiens, UniProt P42574).
T1 sequence (P42574 29-175 limits assumed): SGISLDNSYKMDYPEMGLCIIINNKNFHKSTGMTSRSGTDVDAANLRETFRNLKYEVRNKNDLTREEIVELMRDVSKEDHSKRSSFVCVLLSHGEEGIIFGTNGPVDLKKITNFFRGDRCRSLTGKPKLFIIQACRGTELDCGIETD
T1 sequence (P42574 176-277 limits assumed): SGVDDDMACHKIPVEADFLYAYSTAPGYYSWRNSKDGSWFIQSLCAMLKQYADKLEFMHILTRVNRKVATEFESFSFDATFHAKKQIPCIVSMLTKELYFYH
Kind of data set: Fluorimetric in vitro caspase inhibition assay (7-AMC), caspase 3. In kind it is biochemical. More on the design: purchased Biomol International, UK. Particulars: for EC50: recombinant human caspase 3, 10 μM Ac-DEVD-AMC; for increase in potency as compared to known benzyl derivative 15: caspase 3, versus compound 15. The protocol:
Recombinant human caspases-1, -3, -6, -7, and -8 and their peptide-specific substrates were purchased from Biomol International, UK Inhibition of the recombinant caspases by non-radioactive isatins was assessed using a fluorometric assay that measures the accumulation of a fluorogenic product, 7-amino-4-methylcoumarin (7-AMC). All assays were performed in 96-well plates at a volume of 200 μl per well. The assays were performed at 37° C. in an appropriate reaction buffer as described below for each caspase. For caspase 1, the buffer comprised of 0.1% CHAPS, 100 mM NaCl, 5 mM 2-mercaptoethanol, 100 mM HEPES (pH 7.4), 2 mM EDTA, 10% sucrose, and 10 μM of the peptide substrate Ac-YVAD-AMC. For caspase 3: 20 mM HEPES (pH 7.4), 10% sucrose, 100 mM NaCl, 0.1% CHAPS, 2 m, mM EDTA, and 10 μM Ac-DEVD-AMC. For caspase 6: 20 mM HEPES (pH 7.4), 10% sucrose, 100 mM NaCl, 0.1% CHAPS, 2 mM EDTA, and 10 μM Ac-VEID-AMC. For caspase 7: 20 mM HEPES (pH 7.4), 10% sucrose, 5 mM 2-mercaptoethanol, 100 mM NaCl, 0.1% CHAPS, 2 mM EDTA, 10 μM Ac-DEVD-AMC. For caspase 8: 20 mM HEPES (pH 7.4), 10% sucrose, 100 mM NaCl, 0.1% CHAPS, 2 mM EDTA, and 10 μM Ac-IETD-AMC. The Buffers contained non-radioactive isatins in DMSO at a final concentration of 500, 50, 5 μM; 500, 50, 5 nM; 500, 50, 5 pM; the final concentration of DMSO in all wells was 5% of the total volume. Recombinant caspases were used at 0.5 units per assay (˜500 pmol substrate converted per h). All reagents except the peptide substrate were pre-incubated for 10 min. The peptide substrate (final concentration 10 μM) was then added and the plate was incubated for a further 30 min; 30 min was selected after initial linearity study where reaction was assessed after 10, 30, 60 or 90 min. The 30 min time point was selected. Respective control wells contained all reaction components without enzyme. The amount of 7-AMC produced was measured on a fluorescence microplate reader (Victor2; Perkin-Elmer Life sciences) at excitation and emission wavelengths of 355 nm and 460 nm, respectively. The concentration of isatin that inhibits the caspase activity by 50% (EC50) was estimated by non-linear regression analysis using GraphPad Prism (Version 4.0 for Windows, GraphPad Software, San Diego Calif. USA). All the isatins were analyzed in duplicate; the assays were repeated once.
The data are the average for two runs, each of which was duplicated, at nine concentrations ranging from 5 pM to 500 μM; the drug concentration required to inhibit each enzyme by 50% (EC50) was obtained from nonlinear regression analysis of the inhibition profiles.

Data set [1] in a line: In vitro mouse liver S9 metabolism studies. In kind it is in vitro ADME. The note with it: 60 min incubation, 37° C., HPLC. The method, then: Liver S9 metabolism studies were performed as described in Aboagye et al^19. Mouse livers were rapidly excised and kept at 4° C. throughout the experiment. Tissues were weighed and homogenized in an equivalent volume of 50 mM Tris-150 mM KCl-HCl buffer (pH 7.4) using an Ultra-Thurrax homogenizer (IKA, Staufen, Germany). To obtain the S9 fraction, the homogenate was centrifuged (10,000×g) for 30 min to remove nuclei, mitochondria and cell debris. Protein concentration of the S9 fraction was determined by a commercial BCA protein assay kit (Perbio Science, Cheshire, UK). S9 fractions were stored at −80° C. for up to 6 weeks. […]
Immediately prior to extraction the samples were thawed and placed on ice. For extraction, ice cold acetonitrile (1.5 mL) was added to plasma (0.2 mL); S9 incubation samples (3 mL) containing acetonitrile were also analysed. […] The samples (1 mL) were then analyzed by radio-HPLC on an Agilent 1100 series HPLC system (Agilent Technologies, Stockport, UK) equipped with a γ-RAM Model 3 gamma-detector and the Laura software (IN/US Systems inc., Florida, USA).
The stationary phase comprised of a Waters μBondapak C18 reverse-phase column (300×7.8 mm). For analysis of [^125I]14, plasma and liver samples were processed as above and analyzed by using a mobile phase comprising of water (0.1% TFA)/propan-1-ol (0.1% TFA) (35:65) running in isocratic mode at a flowrate of 2 mL/min. […]

Regarding `O=C1C(=O)N(Cc2ccc(F)cc2)c2ccc(S(=O)(=O)N3CCC[C@H]3COc3cccc(F)c3)cc21` [Compound 1, (S)-1-(4-Fluorobenzyl)-5-(2-(3-fluorophenoxymethyl)-pyrrolidine-1-sulfonyl)isatin], the EC50 at caspase 3 was determined as 17 nM. Further, at caspase 3 (versus known compound 14), the “increase of affinity for caspase 3 as compared with compound 14” value is listed as “two- to three-fold”.
Take `O=C1C(=O)N(Cc2ccc(F)cc2)c2ccc(S(=O)(=O)N3CCC[C@H]3COc3ccc(F)cc3F)cc21` [Compound 2, (S)-1-(4-Fluorobenzyl)-5-(2-(2,4-difluorophenoxymethyl)-pyrrolidine-1-sulfonyl)isatin]: the 50% effective concentration (EC50) on caspase 3 worked out at 12.4 nM.
For the compound `O=C1C(=O)N(Cc2ccc(F)cc2)c2ccc(S(=O)(=O)N3CCC[C@H]3COC3CCOCC3)cc21` [Compound 4, (S)-1-(4-Fluorobenzyl)-5-(2-(tetrahydro-2H-pyran-4-yloxymethyl)-pyrrolidine-1-sulfonyl)isatin], on caspase 3, the “increase in potency as compared to known benzyl derivative 15” value is given as “five-fold” and the concentration for a half-maximal effect (EC50) was determined as 10.7 nM.
For the compound `O=C1C(=O)N(Cc2ccc(F)cc2)c2ccc(S(=O)(=O)N3CCC[C@H]3COc3ccncn3)cc21` [Compound 5, (S)-1-(4-Fluorobenzyl)-5-(2-(pyrimidin-4-yloxymethyl)-pyrrolidine-1-sulfonyl)isatin], the half-maximal effective concentration (EC50) at caspase 3 came out at 5.5 nM.
Consider `O=C1C(=O)N(Cc2cn(CCF)nn2)c2ccc(S(=O)(=O)N3CCC[C@H]3COc3ccccc3)cc21` [Compound 10, (S)-1-((1-(2-Fluoroethyl)-1H-[1,2,3]-triazol-4-yl)methyl)-5-(2-phenoxymethyl-pyrrolidine-1-sulfonyl)isatin], for which, at caspase 3, the “increase in potency as compared to known benzyl derivative 15” value is listed as 4 fold and the EC50 came out at 16.7 nM.
Consider `O=C1C(=O)N(Cc2cn(CCF)nn2)c2ccc(S(=O)(=O)N3CCC[C@H]3COc3ccc(F)cc3F)cc21` [Compound 11, (S)-1-((1-(2-Fluoroethyl)-1H-[1,2,3]-triazol-4-yl)methyl)-5-(2(2,4-difluorophenoxymethyl)-pyrrolidine-1-sulfonyl)isatin], for which, on caspase 3, the EC50 was 0.5 nM.
Same read-out and setting: as for `O=C1C(=O)N(Cc2ccccc2)c2ccc(S(=O)(=O)N3CCC[C@H]3COc3ccccc3)cc21` [Compound 13, (S)-1-benzyl-5-(2-phenoxymethyl-pyrrolidine-1-sulfonyl)isatin, reference compound], the figure is 41.8 nM.
As for `O=C1C(=O)N(Cc2ccc(I)cc2)c2ccc(S(=O)(=O)N3CCC[C@H]3COc3ccccc3)cc21` [Compound 14, (S)-1-(4-iodobenzyl)-5-(2-phenoxymethyl-pyrrolidine-1-sulfonyl)isatin, reference compound], in data set [1], the “degradation in mouse liver S9 fraction” value is “near complete degradation”.
Take `O=C1C(=O)N(Cc2ccc(F)cc2)c2ccc(S(=O)(=O)N3CCC[C@H]3COc3ccccc3)cc21` [Compound 15, (S)-1-(4-fluorobenzyl)-5-(2-phenoxymethyl-pyrrolidine-1-sulfonyl)isatin, reference compound]: the “degradation in mouse liver S9 fraction” value in data set [1] is “near complete degradation”. In addition, the EC50 on caspase 3 came out at 50.5 nM.
For `O=C1C(=O)N(Cc2ccc(F)cc2)c2ccc(S(=O)(=O)N3CCCC3)cc21` [Compound 16, 1-(4-Fluorobenzyl)-5-(pyrrolidine-1-sulfonyl)isatin, reference compound], the EC50 on caspase 3 is 200 nM.
As for `O=C1C(=O)N(Cc2ccc(F)cc2)c2ccc(S(=O)(=O)N3CCC[C@H]3COc3ccc(F)cc3)cc21` [Compound 22, (S)-1-(4-Fluorobenzyl)-5-(2-(4-fluorophenoxymethyl)-pyrrolidine-1-sulfonyl)isatin], the EC50 on caspase 3 is 26.1 nM.
In the case of `C#CCN1C(=O)C(=O)c2cc(S(=O)(=O)N3CCC[C@H]3COc3ccc(F)cc3F)ccc21` [Compound 25, (S)-1-(2-Propynyl)-5-(2-(2,4-difluorophenoxymethyl)-pyrrolidine-1-sulfonyl)isatin], the concentration for a half-maximal effect (EC50) on caspase 3 stood at 50.1 nM.

By EC50 is commonly meant the concentration giving half of the maximal effect.
